Our source for the IC50 values is patent US20250188095A1, “DISUBSTITUTED OCTAHYDROPYRROLO[3,4-c]PYRROLYL METHYL KETONE DERIVATIVE AND USE THEREOF” (JIANGSU NHWA PHARMACEUTICAL CO., LTD, priority 2022, published 2025).

One experiment addresses OX2 receptor (Homo sapiens (Human), UniProt O43614). Nature of the experiment: In vitro activity test (Cisbio IP-one, CHO-K1-OX2 cells, antagonism of EC80 agonist). It counts as cell-based. Here is the method: (§1) (1) Preparation of a reaction buffer (1×Stimulation buffer) required for the experiment: The 5×Stimulation buffer and ddH2O in the Cisbio IP-one kit were diluted in a ratio of 1:4 for later use.
(§2) (2) Compound preparation: The compound was diluted with DMSO to obtain a 5 mM stock solution, followed by a 3.16-fold dilution to obtain 10 gradients, and then the prepared compound was diluted with the Stimulation buffer to the corresponding concentrations (4×) for later use.
(§3) (3) Cell preparation: CHO-K1-OX1 and CHO-K1-OX2 cells on the culture dish were digested with trypsin, and the cells were washed off with culture medium and collected into 5 mL centrifuge tubes. The cells were centrifuged at 1000 rpm for 5 min, and the supernatant was discarded. 3 mL of PBS was added, and the mixture was gently pipetted to be mixed well. The cells were centrifuged again at 1000 rpm for 5 min, and the supernatant was discarded. The cells were resuspended in 1×Stimulation buffer and counted using a Countstar cell counter, and the cell density was adjusted to 1.71×10^6 cells/mL for later use.
(§4) (4) Cell addition: The cell suspensions were added to assay plates at 7 μL/well (i.e., about 12,000 cells/well).
(§5) (5) Compound addition: The compound diluted with the Stimulation buffer was added to the assay plates described above at 3.5 μL/well.
(§6) (6) Reaction and incubation: After gentle shaking, the assay plates were incubated at 37° C. for 30 min.
(§7) (7) EC80 agonist addition: 4×Orexin A (OX1 receptor) and 4×Orexin 2 receptor agonist (OX2 receptor) solutions of EC80 were added at 3.5 μL/well.
(§8) (8) Reaction and incubation: After gentle shaking, the assay plates were incubated at 37° C. for 45 min.
(§9) (9) Detection reagent addition: IP1-d2 and Anti-IP1 cryptate were separately diluted in a 1:20 ratio with the Lysis & detection buffer in the Cisbio IP-one detection kit, and the diluted IP1-d2 and Anti-IP1 cryptate described above were added to the assay plates, each at 3 μL/well. After shaking, the assay plates were left to stand at room temperature for 60 min.
(§10) (10) Experimental readings: The plate was read on Envision, readings from the 665 nm and 615 nm channels were taken, and the ratio of 665 nm/615 nm readings was calculated.
(§11) Based on the antagonistic effect values of the compound sample at different concentration test points, antagonistic curves of the compound sample against the orexin receptors were fitted using GraphPad Prism software, and the IC50 was calculated.

The next experiment deals with OX1 receptor (Homo sapiens (Human), UniProt O43613). The experiment is described as follows: In vitro activity test (Cisbio IP-one, CHO-K1-OX1 cells, antagonism of EC80 Orexin A). Format: cell-based. Here is the method:
as §1, §2, §3, §4, §5, §6, §7, §8, §9, §10, §11

Where only a bound is given, the exact number is not on record here.

Chain of OX1 receptor (O43613 whole entry): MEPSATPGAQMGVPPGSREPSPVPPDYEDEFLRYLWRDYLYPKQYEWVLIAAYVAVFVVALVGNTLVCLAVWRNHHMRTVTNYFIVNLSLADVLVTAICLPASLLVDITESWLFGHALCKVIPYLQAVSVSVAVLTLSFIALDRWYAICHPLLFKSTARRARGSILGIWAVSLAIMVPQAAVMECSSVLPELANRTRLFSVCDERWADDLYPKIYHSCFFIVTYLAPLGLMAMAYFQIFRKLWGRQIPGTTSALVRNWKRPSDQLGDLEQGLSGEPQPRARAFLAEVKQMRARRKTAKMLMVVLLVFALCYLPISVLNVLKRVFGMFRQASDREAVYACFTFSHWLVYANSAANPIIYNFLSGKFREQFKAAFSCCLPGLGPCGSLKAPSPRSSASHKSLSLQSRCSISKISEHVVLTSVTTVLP
Chain of OX2 receptor (O43614 whole entry): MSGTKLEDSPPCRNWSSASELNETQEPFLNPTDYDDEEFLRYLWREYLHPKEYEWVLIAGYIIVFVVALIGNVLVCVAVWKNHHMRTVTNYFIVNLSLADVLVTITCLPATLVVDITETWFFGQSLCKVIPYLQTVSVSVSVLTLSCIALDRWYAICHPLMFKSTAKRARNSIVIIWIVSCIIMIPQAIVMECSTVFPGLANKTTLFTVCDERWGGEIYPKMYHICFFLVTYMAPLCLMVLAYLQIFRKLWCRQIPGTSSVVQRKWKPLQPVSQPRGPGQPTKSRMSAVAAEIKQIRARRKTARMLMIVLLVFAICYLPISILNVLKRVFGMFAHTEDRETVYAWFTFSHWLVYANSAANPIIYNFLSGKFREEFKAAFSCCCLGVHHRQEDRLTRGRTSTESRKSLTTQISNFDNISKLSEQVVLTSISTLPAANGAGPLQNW

Take `Cc1cc(C)nc(N2C[C@H]3CN(C(=O)c4c(-c5ccccc5)cn5ccccc45)C[C@H]3C2)n1` [Example 1, ((3aR,6aS)-5-(4,6-dimethylpyrimidin-2-yl)hexahydropyrrolo[3,4-c]pyrrol-2(1H)-yl)(2-phenylindolizin-1-yl)methanone]: the results for the half-inhibitory concentration (IC50) on OX2 receptor and at OX1 receptor were 100 to 300 nM and above 1000 nM, respectively.

With `Cc1cc(C)nc(N2C[C@H]3CN(C(=O)c4c(-c5ccccn5)cn5ccccc45)C[C@H]3C2)n1` [Example 2, ((3aR,6aS)-5-(4,6-dimethylpyrimidin-2-yl)hexahydropyrrolo[3,4-c]pyrrol-2(1H)-yl)(2-(pyridin-2-yl)indolizin-1-yl)methanone], the values for the half-inhibitory concentration (IC50) at OX2 receptor and against OX1 receptor were 100 to 300 nM and above 1000 nM, respectively.

As to `Cc1cc(C)nc(N2C[C@H]3CN(C(=O)c4c(-c5ccc(C)s5)cn5ccccc45)C[C@H]3C2)n1` [Example 4, ((3aR,6aS)-5-(4,6-dimethylpyrimidin-2-yl)hexahydropyrrolo[3,4-c]pyrrol-2(1H)-yl)(2-(5-methylthiophen-2-yl)indolizin-1-yl)methanone], the 50% inhibitory concentration (IC50) (commonly the concentration needed to halve the response being measured) at OX2 receptor is below 100 nM; on OX1 receptor, above 1000 nM.

Take `Cc1cc(C)nc(N2C[C@H]3CN(C(=O)c4c(-c5ccccn5)nn5ccccc45)C[C@H]3C2)n1` [Example 6, ((3aR,6aS)-5-(4,6-dimethylpyrimidin-2-yl)hexahydropyrrolo[3,4-c]pyrrol-2(1H)-yl)(2-(pyridin-2-yl)pyrazolo[1,5-a]pyridin-3-yl)methanone]: the IC50 was below 100 nM at OX2 receptor and above 1000 nM at OX1 receptor.

Regarding `Cc1nc(N2C[C@H]3CN(C(=O)c4c(-c5ncccc5F)cn5ccccc45)C[C@H]3C2)nc2ccoc12` [Example 7, (2-(3-fluoropyridin-2-yl)indolizin-1-yl)((3aR,6aS)-5-(4-methylfuro [3,2-d]pyrimidin-2-yl)hexahydropyrrolo[3,4-c]pyrrol-2(1H)-yl)methanone], the figures for the IC50 on OX2 receptor and against OX1 receptor were below 100 nM and above 1000 nM, respectively.

Regarding `Cc1nc(N2C[C@H]3CN(C(=O)c4c(-c5ncccc5F)cn5ccccc45)C[C@H]3C2)nn2cccc12` [Example 8, (2-(3-Fluoropyridin-2-yl)indolizin-1-yl)((3aR,6aS)-5-(4-methylpyrrolo [2,1-f][1,2,4]triazin-2-yl)hexahydropyrrolo[3,4-c]pyrrol-2(1H)-yl)methanone], the results for the half-inhibitory concentration (IC50) at OX2 receptor and at OX1 receptor were below 100 nM and above 1000 nM, respectively.

Turning to `Cc1cc(C)nc(N2C[C@H]3CN(C(=O)c4c(-c5nccs5)cn5ccccc45)C[C@H]3C2)n1` [Example 9, ((3aR,6aS)-5-(4,6-dimethylpyrimidin-2-yl)hexahydropyrrolo[3,4-c]pyrrol-2(1H)-yl)(2-(thiazol-2-yl)indolizin-1-yl)methanone], the IC50 was 100 to 300 nM at OX2 receptor and above 1000 nM against OX1 receptor.

Turning to `O=C(c1c(-c2ncccc2F)cn2ccccc12)N1C[C@@H]2CN(c3cnc4ccccc4n3)C[C@@H]2C1` [Example 10, (2-(3-Fluoropyridin-2-yl)indolizin-1-yl)((3aR,6aS)-5-(quinoxalin-2-yl)hexahydropyrrolo[3,4-c]pyrrol-2(1H)-yl)methanone], the results for the 50% inhibitory concentration (IC50) at OX2 receptor and at OX1 receptor were 100 to 300 nM and above 1000 nM, respectively.

Regarding `Cc1cc(C)nc(N2C[C@H]3CN(C(=O)c4c(-c5ncccc5C(F)(F)F)cn5ccccc45)C[C@H]3C2)n1` [Example 11, ((3aR,6aS)-5-(4,6-dimethylpyrimidin-2-yl)hexahydropyrrolo[3,4-c]pyrrol-2(1H)-yl)(2-(3-(trifluoromethyl)pyridin-2-yl)indolizin-1-yl)methanone], the values for the concentration for half-maximal inhibition (IC50) at OX2 receptor and on OX1 receptor were 100 to 300 nM and above 1000 nM, respectively.

For the compound `Cc1cc(C)nc(N2C[C@H]3CN(C(=O)c4c(-c5ccccc5)nn5cccnc45)C[C@H]3C2)n1` [Example 12, ((3aR,6aS)-5-(4,6-dimethylpyrimidin-2-yl)hexahydropyrrolo[3,4-c]pyrrol-2(1H)-yl)(2-phenylpyrazolo[1,5-a]pyrimidin-3-yl)methanone], the IC50 at OX2 receptor was 100 to 300 nM; at OX1 receptor, above 1000 nM.

For `Cc1cc(C)nc(N2C[C@H]3CN(C(=O)c4c(-c5ccccc5)nn5ccncc45)C[C@H]3C2)n1` [Example 13, ((3aR,6aS)-5-(4,6-dimethylpyrimidin-2-yl)hexahydropyrrolo[3,4-c]pyrrol-2(1H)-yl)(2-phenylpyrazolo[1,5-a]pyrazin-3-yl)methanone], the half-inhibitory concentration (IC50) is 100 to 300 nM at OX2 receptor and above 1000 nM at OX1 receptor.

Take `Cc1cc(C)nc(N2C[C@H]3CN(C(=O)c4c(-c5ccccc5)nn5ncccc45)C[C@H]3C2)n1` [Example 14, ((3aR,6aS)-5-(4,6-dimethylpyrimidin-2-yl)hexahydropyrrolo[3,4-c]pyrrol-2(1H)-yl)(2-phenylpyrazolo[1,5-b]pyridazin-3-yl)methanone]: the half-inhibitory concentration (IC50) at OX2 receptor was 100 to 300 nM; against OX1 receptor it was above 1000 nM.

`Cc1cc(C)nc(N2C[C@H]3CN(C(=O)c4c(-c5ccccc5F)cn5ccccc45)C[C@H]3C2)n1` [Example 15, ((3aR,6aS)-5-(4,6-dimethylpyrimidin-2-yl)hexahydropyrrolo[3,4-c]pyrrol-2(1H)-yl)(2-(2-fluorophenyl)indolizin-1-yl)methanone]: the IC50 at OX2 receptor was below 100 nM; on OX1 receptor, above 1000 nM.

As for `Cc1cc(C)nc(N2C[C@H]3CN(C(=O)c4c(-c5ccsc5)cn5ccccc45)C[C@H]3C2)n1` [Example 17, ((3aR,6aS)-5-(4,6-dimethylpyrimidin-2-yl)hexahydropyrrolo[3,4-c]pyrrol-2(1H)-yl)(2-(thiophen-3-yl)indolizin-1-yl)methanone], the IC50 at OX2 receptor was below 100 nM.

For the compound `Cc1cc(C)nc(N2C[C@H]3CN(C(=O)c4c(-c5ncccc5F)cn5cc(F)ccc45)C[C@H]3C2)n1` [Example 18, ((3aR,6aS)-5-(4,6-dimethylpyrimidin-2-yl)hexahydropyrrolo[3,4-c]pyrrol-2(1H)-yl)(6-fluoro-2-(3-fluoropyridin-2-yl)indolizin-1-yl)methanone], the 50% inhibitory concentration (IC50) on OX2 receptor is below 100 nM; at OX1 receptor, above 1000 nM.

With `Cc1cc(C)nc(N2C[C@H]3CN(C(=O)c4c(-c5ccccn5)cn5cc(F)ccc45)C[C@H]3C2)n1` [Example 19, ((3aR,6aS)-5-(4,6-dimethylpyrimidin-2-yl)hexahydropyrrolo[3,4-c]pyrrol-2(1H)-yl)(6-fluoro-2-(pyridin-2-yl)indolizin-1-yl)methanone], the concentration for half-maximal inhibition (IC50) is below 100 nM on OX2 receptor and above 1000 nM against OX1 receptor.

In the case of `Cc1cc(C)nc(N2C[C@H]3CN(C(=O)c4c(-c5ncco5)cn5ccccc45)C[C@H]3C2)n1` [Example 20, ((3aR,6aS)-5-(4,6-dimethylpyrimidin-2-yl)hexahydropyrrolo[3,4-c]pyrrol-2(1H)-yl)(2-(oxazol-2-yl)indolizin-1-yl)methanone], the figures for the IC50 at OX2 receptor and on OX1 receptor were below 100 nM and above 1000 nM, respectively.

For the compound `Cc1cc(C)nc(N2C[C@H]3CN(C(=O)c4c(-c5ncccn5)cn5ccccc45)C[C@H]3C2)n1` [Example 21, ((3aR,6aS)-5-(4,6-dimethylpyrimidin-2-yl)hexahydropyrrolo[3,4-c]pyrrol-2(1H)-yl)(2-(pyrimidin-2-yl)indolizin-1-yl)methanone], the half-inhibitory concentration (IC50) at OX2 receptor is below 100 nM; at OX1 receptor, above 1000 nM.
